Values of other authors in article PMC6627067, “Probing Multi-Target Action of Phlorotannins as New Monoamine Oxidase Inhibitors and Dopaminergic Receptor Modulators with the Potential for Treatment of Neuronal Disorders” (Marine Drugs, 2019).

What was measured:
hMAO-A = molecular target: T1, hMAO-A (Homo sapiens, UniProt P21397); parameters: method as in PMID 28251489; settings: cited from earlier work
T1 sequence (P21397 1-527): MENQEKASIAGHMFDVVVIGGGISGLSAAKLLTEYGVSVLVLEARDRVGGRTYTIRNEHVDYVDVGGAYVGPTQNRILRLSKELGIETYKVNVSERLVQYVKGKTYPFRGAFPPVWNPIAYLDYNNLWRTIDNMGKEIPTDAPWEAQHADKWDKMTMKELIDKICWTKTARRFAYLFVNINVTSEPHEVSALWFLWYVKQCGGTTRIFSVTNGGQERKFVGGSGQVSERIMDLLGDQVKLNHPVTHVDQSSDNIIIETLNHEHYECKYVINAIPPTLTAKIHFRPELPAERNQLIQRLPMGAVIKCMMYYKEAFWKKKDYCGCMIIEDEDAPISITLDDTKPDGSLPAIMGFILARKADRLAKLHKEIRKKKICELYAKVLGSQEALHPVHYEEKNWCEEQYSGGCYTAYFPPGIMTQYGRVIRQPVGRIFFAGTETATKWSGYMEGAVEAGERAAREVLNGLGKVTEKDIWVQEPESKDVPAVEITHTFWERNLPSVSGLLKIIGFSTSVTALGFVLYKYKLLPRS

hMAO-B = molecular target: T2, hMAO-B (Homo sapiens, UniProt P27338); parameters: method as in PMID 28251489; settings: cited from earlier work
T2 sequence (P27338 1-520): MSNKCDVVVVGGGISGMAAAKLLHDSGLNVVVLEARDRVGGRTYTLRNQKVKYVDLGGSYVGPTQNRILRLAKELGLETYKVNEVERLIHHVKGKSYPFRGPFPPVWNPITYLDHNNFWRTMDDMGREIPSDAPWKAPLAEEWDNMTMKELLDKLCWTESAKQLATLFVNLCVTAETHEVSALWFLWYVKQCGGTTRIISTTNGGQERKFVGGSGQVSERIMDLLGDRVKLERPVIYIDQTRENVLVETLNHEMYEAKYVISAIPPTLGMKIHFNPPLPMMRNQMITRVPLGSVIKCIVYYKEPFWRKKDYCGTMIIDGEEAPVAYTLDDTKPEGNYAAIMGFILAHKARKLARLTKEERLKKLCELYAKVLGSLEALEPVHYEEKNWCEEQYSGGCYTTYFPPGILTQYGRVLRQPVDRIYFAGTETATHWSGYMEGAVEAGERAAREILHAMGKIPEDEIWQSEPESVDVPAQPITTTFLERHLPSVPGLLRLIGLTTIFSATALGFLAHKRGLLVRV

hM5 (CHRM5) = molecular target: T3, hM5 (CHRM5) (Homo sapiens, UniProt P08912); settings: previous GPCR cell-based study; cited from earlier work
T3 sequence (P08912 1-532): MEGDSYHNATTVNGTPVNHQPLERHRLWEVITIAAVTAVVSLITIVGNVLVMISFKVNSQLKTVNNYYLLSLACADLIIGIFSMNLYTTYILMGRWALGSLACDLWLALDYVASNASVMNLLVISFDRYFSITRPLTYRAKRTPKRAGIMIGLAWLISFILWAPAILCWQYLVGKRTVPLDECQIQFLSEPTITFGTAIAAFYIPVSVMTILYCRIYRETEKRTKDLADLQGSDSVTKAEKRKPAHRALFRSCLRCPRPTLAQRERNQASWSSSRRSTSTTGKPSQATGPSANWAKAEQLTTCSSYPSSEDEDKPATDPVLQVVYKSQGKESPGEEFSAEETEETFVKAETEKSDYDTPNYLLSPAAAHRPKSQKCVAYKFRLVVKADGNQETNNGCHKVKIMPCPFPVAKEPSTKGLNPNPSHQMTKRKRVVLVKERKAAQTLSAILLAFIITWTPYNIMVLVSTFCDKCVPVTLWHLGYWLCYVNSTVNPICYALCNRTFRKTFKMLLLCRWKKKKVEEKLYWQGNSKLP

hNK1 (TACR1) = hNK1 (TACR1) (Homo sapiens, UniProt P25103); settings: previous GPCR cell-based study; cited from earlier work
Sequence of hNK1 (TACR1) (P25103 whole entry): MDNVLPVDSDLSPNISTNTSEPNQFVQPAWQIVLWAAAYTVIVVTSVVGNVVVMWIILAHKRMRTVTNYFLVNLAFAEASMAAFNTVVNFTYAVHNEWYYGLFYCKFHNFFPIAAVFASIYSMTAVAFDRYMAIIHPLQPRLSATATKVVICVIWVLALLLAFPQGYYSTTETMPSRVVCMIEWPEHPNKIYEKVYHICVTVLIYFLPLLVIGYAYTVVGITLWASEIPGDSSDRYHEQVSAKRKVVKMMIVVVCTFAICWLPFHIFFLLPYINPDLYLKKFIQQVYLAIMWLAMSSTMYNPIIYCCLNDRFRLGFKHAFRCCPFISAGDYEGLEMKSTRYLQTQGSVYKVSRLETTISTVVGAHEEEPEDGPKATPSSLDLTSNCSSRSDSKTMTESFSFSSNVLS

h5-HT1A (HTR1A) = molecular target: T4, h5-HT1A (HTR1A) (Homo sapiens, UniProt P08908); settings: previous GPCR cell-based study; cited from earlier work
T4 sequence (P08908 1-422): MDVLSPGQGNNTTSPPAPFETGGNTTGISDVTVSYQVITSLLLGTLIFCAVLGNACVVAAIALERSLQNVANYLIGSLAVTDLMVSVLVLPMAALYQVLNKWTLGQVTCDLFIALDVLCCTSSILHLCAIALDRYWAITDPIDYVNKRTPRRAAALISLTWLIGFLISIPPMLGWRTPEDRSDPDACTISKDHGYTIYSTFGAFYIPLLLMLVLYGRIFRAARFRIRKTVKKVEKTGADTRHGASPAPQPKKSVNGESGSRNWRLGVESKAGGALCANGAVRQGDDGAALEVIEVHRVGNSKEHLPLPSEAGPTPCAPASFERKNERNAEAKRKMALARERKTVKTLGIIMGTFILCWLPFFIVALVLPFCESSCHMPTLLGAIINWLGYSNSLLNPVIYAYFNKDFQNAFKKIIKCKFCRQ

hV1A (AVPR1A) = hV1A (AVPR1A) (Homo sapiens, UniProt P37288); settings: previous GPCR cell-based study; cited from earlier work
Sequence of hV1A (AVPR1A) (P37288 whole entry): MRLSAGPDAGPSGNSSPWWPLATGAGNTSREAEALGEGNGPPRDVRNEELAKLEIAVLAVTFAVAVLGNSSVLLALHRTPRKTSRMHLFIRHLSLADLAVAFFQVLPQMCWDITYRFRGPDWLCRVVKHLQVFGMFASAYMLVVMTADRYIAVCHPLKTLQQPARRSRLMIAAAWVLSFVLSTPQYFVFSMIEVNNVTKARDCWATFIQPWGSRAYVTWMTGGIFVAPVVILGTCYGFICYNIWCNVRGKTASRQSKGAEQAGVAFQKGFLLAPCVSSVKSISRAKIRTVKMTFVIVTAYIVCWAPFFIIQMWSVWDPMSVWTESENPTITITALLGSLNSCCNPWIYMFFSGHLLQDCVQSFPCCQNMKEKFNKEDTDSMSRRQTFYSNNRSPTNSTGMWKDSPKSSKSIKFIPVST

hD1 (DRD1) = hD1 (DRD1) (Homo sapiens, UniProt P21728); parameters: host or cells: CHO cells; settings: previous GPCR cell-based study; cited from earlier work
Sequence of hD1 (DRD1) (P21728 whole entry): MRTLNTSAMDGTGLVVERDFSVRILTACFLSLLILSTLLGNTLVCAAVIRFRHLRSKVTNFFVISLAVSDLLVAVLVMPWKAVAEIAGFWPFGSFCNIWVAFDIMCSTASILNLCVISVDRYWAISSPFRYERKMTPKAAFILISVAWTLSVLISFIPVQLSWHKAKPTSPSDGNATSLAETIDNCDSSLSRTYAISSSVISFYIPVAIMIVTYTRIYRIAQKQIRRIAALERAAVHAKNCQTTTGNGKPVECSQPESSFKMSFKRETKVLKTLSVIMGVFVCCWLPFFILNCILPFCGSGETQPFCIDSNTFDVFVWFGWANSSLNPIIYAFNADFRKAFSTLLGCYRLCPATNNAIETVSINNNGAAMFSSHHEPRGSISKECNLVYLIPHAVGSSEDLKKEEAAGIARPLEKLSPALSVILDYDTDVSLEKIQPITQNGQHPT

hD3 (DRD3) = hD3 (DRD3) (Homo sapiens, UniProt P35462); parameters: host or cells: CHO cells; settings: previous GPCR cell-based study; cited from earlier work
Sequence of hD3 (DRD3) (P35462 whole entry): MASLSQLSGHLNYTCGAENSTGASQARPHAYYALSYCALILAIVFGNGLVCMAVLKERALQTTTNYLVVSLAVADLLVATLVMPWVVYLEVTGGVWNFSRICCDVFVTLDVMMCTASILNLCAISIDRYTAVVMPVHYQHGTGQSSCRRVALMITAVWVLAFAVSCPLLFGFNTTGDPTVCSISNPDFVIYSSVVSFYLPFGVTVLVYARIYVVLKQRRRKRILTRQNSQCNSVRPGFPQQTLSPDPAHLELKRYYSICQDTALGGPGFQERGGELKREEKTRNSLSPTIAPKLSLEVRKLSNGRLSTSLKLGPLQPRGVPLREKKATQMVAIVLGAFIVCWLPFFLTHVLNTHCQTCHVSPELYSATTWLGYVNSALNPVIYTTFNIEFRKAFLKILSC

hD4 (DRD4) = molecular target: T5, hD4 (DRD4) (Homo sapiens, UniProt P21917); parameters: host or cells: CHO cells; settings: previous GPCR cell-based study; cited from earlier work
T5 sequence (P21917 1-419): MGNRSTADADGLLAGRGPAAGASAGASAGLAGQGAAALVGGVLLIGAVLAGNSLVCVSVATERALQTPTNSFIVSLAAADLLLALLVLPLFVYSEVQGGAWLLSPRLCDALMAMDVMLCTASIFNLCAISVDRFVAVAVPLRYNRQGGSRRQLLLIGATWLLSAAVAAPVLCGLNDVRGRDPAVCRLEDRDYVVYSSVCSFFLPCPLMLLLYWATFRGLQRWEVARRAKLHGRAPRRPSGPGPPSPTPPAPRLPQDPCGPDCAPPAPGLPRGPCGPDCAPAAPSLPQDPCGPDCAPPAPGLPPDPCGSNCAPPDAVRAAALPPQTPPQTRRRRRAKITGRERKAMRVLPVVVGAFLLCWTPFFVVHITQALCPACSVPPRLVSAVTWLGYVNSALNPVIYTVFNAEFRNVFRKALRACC

Oc1cc(O)cc(Oc2c(O)cc(O)c3c2Oc2c(O)cc(O)cc2O3)c1 [Eckol, eckol]
Inhibition type hMAO-A (hMAO-A; NC = noncompetitive, Mixed = mixed type): Mixed
Ki (hMAO-A): 20.3 µM
SI (selective index) (hMAO-A; ratio of hMAO-A IC50/hMAO-B IC50): 0.09
IC50 (hMAO-A; recombinant hMAO-A, obtained from the literature): 7.2 ± 0.71 µM
Ki (hMAO-B): 163 µM
IC50 (hMAO-B; recombinant hMAO-B, obtained from the literature): 83.4 ± 1.48 µM
Effect on M5 receptor (hM5 (CHRM5)): null effects
Effect on NK1 receptor (hNK1 (TACR1)): null effects
Effect on 5HT1A receptor (h5-HT1A (HTR1A)): null effects
Effect on V1A receptor (hV1A (AVPR1A)): null effects
Effect on D1R (hD1 (DRD1)): null effects
Effect on hD3R (hD3 (DRD3)): agonist
Effect on hD4R (hD4 (DRD4)): agonist
